The values that follow come from article PMC3744640 (Bioorganic & medicinal chemistry letters, 2013).

Entries after “also recorded” stand apart in the source; their conditions may differ.

The subject of one assay is HepG2. Kind of assay: growth inhibition of HepG2 liver carcinoma cells. Type of assay: cell-based. The note with it: up to 100 μM.
Another assay has as its system Huh-7. Briefly: growth inhibition of Huh-7 liver carcinoma cells. Type of assay: cell-based. The following applies: up to 100 μM.
A further assay concerns the target VEGFR-2 (Homo sapiens, UniProt P35968). Briefly: VEGFR-2 inhibition at a single concentration. The format is biochemical. The note with it: 10 μM concentration of test compound.
Another assay concerns the target C-RAF (Homo sapiens, UniProt P04049). Kind of assay: C-RAF kinase inhibition. The note with it: compared with t-CUPM. Type of assay: biochemical.
A further assay deals with 10 recombinant kinases. The note with it: 10 μM concentration.
Assay [1] relates to lipopolysaccharide-induced inflammation. The following applies: lipopolysaccharide-induced inflammation murine model; cited from earlier work.

Chain of VEGFR-2 (P35968 20-1356): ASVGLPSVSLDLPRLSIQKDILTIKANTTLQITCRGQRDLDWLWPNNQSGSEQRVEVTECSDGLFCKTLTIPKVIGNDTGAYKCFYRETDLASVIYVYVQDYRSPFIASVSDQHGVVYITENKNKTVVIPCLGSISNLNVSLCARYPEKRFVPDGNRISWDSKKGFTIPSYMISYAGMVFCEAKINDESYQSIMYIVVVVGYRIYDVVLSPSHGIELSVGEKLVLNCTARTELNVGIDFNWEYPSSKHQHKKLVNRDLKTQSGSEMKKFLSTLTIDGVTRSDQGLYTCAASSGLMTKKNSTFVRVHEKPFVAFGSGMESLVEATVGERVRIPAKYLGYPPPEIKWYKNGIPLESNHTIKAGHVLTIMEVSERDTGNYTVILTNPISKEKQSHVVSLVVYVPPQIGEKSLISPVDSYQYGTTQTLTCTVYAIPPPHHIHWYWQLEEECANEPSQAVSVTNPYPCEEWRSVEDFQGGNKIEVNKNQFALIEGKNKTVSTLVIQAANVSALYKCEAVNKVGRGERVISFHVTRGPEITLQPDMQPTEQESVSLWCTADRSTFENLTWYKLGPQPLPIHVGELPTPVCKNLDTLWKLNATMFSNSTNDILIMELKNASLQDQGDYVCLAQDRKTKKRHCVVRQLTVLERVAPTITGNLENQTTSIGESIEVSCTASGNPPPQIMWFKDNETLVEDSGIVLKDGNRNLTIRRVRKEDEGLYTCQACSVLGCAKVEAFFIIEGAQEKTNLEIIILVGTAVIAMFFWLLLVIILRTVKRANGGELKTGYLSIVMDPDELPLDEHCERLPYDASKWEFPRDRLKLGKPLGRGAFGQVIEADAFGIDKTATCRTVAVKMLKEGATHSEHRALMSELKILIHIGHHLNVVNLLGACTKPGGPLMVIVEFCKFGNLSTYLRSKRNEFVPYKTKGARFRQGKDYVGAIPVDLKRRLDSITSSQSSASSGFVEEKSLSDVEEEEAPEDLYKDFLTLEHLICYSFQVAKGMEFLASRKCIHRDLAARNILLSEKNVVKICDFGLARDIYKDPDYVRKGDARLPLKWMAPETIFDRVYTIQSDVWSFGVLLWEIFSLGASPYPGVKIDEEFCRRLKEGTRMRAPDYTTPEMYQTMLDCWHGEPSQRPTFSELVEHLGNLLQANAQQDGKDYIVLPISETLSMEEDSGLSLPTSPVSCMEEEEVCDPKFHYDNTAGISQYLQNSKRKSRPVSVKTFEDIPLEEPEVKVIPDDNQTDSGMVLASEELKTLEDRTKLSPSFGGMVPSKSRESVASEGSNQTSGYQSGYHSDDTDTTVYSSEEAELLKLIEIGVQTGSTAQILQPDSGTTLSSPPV
Chain of C-RAF (P04049 whole entry): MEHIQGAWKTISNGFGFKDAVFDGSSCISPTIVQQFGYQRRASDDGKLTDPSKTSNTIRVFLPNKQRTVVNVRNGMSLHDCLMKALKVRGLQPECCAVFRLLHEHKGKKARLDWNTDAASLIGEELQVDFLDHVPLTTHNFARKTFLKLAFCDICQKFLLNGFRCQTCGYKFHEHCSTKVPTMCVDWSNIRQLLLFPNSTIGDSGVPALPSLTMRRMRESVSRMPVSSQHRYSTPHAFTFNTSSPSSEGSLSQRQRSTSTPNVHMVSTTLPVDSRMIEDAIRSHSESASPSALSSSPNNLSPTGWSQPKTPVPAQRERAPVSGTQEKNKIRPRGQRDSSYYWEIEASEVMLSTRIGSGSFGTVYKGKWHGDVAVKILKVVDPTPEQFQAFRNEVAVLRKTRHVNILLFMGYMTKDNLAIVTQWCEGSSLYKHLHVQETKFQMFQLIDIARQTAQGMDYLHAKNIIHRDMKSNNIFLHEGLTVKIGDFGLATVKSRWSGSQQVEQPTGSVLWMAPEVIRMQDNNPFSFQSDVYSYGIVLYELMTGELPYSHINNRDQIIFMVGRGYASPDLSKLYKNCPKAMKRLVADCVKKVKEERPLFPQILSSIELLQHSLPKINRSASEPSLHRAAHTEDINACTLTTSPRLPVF

In the case of `CS(=O)(=O)N1CCC(NC(=O)Nc2ccc(OC(F)(F)F)cc2)CC1` [TUPS], the “effect on cell viability (in words)” value in the assay with HepG2 and in the assay on Huh-7 was “no observable effects on cell viability” throughout.
For `CNC(=O)c1cc(O[C@H]2CC[C@H](NC(=O)Nc3ccc(Cl)c(C(F)(F)F)c3)CC2)ccn1` [compound 4, trans-4-{4-[3-(4-chloro-3-trifluoromethyl-phenyl)-ureido]-cyclohexyloxy}-pyridine-2-carboxylic acid methylamide], the “Percent inhibition against VEGFR-2 (in words)” value (shortened to “Percent inhibition”) at VEGFR-2 is reported as “displayed potency towards VEGFR-2”.
Still for that read-out and setting: the entry for `O=C(Nc1ccc(Cl)c(C(F)(F)F)c1)N[C@H]1CC[C@H](Oc2cccc(C(=O)O)c2)CC1` [compound 7, trans-3-{4-[3-(4-chloro-3-trifluoromethyl-phenyl)-ureido]-cyclohexyloxy}-benzoic acid] is “lack of VEGFR-2 inhibition”.
In the case of `CNC(=O)c1cccc(O[C@H]2CC[C@H](NC(=O)Nc3ccc(Cl)c(C(F)(F)F)c3)CC2)c1` [compound 8], the “Percent inhibition” value at VEGFR-2 (10 µM) is listed as “little inhibitory activity; also recorded: lack of VEGFR-2 inhibition”.
As to `CNC(=O)c1ccc(O[C@H]2CC[C@H](NC(=O)Nc3ccc(Cl)c(C(F)(F)F)c3)CC2)cn1` [compound 9], at C-RAF, the “fold less activity against C-RAF relative to t-CUPM” value is 2.3 fold. The “Percent inhibition” value on VEGFR-2 was “displayed potency towards VEGFR-2”.
For the compound `O=C(Nc1ccc(OC(F)(F)F)cc1)N[C@H]1CC[C@H](Oc2ccc(C(=O)O)cc2)CC1` [compound 12, trans-4-{4-[3-(4-trifluoromethoxy-phenyl)-ureido]-cyclohexyloxy}-benzoic acid], the “multi-kinase inhibition (in words)” value in the assay on 10 recombinant kinases is on record as “no significant multi-kinase inhibition”.
Turning to `CNC(=O)c1cc(O[C@H]2CC[C@@H](NC(=O)Nc3ccc(Cl)c(C(F)(F)F)c3)CC2)ccn1` [compound 17], the “Percent inhibition” value on VEGFR-2 is recorded as “lack of VEGFR-2 inhibition”.
On the same count and under the same terms, the entry for `CNC(=O)c1cc(Oc2ccc(NC(=O)NC34CC5CC(CC(C5)C3)C4)cc2)ccn1` [compound 21] is “displayed potency towards VEGFR-2”; for `CNC(=O)c1cc(Oc2ccc(NC(=O)Nc3ccc(OC(F)(F)F)cc3)cc2)ccn1` [compound 22] it is “displayed potency towards VEGFR-2”.
Regarding `CNC(=O)c1cc(Oc2ccc(NC(=O)Nc3ccc(Cl)c(C(F)(F)F)c3)cc2)ccn1` [sorafenib], in assay [1], the “anti-inflammatory response (in words)” value is given as “exhibits similar anti-inflammatory responses as conventional sEH inhibitors”.
